According to article PMC6458995, “MAP4K4 Inhibition Promotes Survival of Human Stem Cell-Derived Cardiomyocytes and Reduces Infarct Size In Vivo” (Cell Stem Cell, 2019):

Experiments:
Experiment in all cases: Dundee kinase panel
Assay type in all cases: biochemical
Details in all cases: for remaining activity at 1 µM: read-out: residual activity
[1] = molecular target: T1, ZAP70 (Homo sapiens, UniProt P43403)
T1 construct: lines 1-140) and Reaction Biology
T1 sequence (P43403 1-619): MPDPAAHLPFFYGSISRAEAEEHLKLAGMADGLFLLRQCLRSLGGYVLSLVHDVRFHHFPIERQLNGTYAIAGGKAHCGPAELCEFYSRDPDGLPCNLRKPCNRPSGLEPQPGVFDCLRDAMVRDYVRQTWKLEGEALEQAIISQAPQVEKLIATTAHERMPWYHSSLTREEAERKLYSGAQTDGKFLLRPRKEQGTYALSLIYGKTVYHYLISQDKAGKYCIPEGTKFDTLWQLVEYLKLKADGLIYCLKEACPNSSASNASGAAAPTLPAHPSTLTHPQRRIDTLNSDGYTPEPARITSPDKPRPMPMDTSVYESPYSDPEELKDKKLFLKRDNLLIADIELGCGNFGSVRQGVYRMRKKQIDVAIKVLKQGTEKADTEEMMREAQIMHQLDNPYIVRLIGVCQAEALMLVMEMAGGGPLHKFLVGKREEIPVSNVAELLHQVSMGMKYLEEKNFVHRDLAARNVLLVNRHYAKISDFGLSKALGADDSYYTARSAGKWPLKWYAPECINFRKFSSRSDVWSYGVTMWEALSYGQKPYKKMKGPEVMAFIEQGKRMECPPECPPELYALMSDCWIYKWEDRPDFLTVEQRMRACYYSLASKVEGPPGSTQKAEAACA
Protocol: (§1) Compounds were screened at 1 μM. For key hits, pIC50 values were then determined by HTRF as above. […] Stability in mouse and human liver microsomes was determined by Cyprotex.

[2] = molecular target: T2, TAO1 (Homo sapiens, UniProt Q7L7X3)
T2 construct: lines 1-140) and Reaction Biology
T2 sequence (Q7L7X3 1-1001): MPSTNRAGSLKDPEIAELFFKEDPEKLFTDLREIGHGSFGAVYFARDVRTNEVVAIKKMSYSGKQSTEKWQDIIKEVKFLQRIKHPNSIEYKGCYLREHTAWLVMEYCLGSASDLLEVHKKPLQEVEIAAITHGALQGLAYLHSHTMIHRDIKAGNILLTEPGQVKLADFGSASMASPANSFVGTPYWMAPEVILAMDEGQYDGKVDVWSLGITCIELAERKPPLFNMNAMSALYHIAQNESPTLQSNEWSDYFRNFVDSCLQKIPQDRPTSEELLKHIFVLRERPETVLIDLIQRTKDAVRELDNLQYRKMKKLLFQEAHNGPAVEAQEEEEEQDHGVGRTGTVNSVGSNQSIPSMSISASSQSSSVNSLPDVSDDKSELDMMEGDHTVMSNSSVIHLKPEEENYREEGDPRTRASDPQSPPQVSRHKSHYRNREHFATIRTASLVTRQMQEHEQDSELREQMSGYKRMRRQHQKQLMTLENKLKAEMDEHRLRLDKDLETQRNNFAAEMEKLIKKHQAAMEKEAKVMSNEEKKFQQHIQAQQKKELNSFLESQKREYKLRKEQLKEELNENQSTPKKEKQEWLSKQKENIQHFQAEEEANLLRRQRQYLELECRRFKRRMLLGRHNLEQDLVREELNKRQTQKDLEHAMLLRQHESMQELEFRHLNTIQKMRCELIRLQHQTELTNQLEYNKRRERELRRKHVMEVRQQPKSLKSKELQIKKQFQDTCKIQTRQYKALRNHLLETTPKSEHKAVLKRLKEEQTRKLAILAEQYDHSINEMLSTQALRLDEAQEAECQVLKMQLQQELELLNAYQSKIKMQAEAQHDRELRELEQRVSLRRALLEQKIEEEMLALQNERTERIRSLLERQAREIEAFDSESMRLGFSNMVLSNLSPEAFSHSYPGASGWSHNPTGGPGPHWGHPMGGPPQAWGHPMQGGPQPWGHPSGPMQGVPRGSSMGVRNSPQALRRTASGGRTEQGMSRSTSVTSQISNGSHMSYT
Protocol: as §1

[3] = molecular target: T3, EIF2AK3 (Homo sapiens, UniProt Q9NZJ5)
T3 construct: lines 1-140) and Reaction Biology
T3 sequence (Q9NZJ5 30-1116): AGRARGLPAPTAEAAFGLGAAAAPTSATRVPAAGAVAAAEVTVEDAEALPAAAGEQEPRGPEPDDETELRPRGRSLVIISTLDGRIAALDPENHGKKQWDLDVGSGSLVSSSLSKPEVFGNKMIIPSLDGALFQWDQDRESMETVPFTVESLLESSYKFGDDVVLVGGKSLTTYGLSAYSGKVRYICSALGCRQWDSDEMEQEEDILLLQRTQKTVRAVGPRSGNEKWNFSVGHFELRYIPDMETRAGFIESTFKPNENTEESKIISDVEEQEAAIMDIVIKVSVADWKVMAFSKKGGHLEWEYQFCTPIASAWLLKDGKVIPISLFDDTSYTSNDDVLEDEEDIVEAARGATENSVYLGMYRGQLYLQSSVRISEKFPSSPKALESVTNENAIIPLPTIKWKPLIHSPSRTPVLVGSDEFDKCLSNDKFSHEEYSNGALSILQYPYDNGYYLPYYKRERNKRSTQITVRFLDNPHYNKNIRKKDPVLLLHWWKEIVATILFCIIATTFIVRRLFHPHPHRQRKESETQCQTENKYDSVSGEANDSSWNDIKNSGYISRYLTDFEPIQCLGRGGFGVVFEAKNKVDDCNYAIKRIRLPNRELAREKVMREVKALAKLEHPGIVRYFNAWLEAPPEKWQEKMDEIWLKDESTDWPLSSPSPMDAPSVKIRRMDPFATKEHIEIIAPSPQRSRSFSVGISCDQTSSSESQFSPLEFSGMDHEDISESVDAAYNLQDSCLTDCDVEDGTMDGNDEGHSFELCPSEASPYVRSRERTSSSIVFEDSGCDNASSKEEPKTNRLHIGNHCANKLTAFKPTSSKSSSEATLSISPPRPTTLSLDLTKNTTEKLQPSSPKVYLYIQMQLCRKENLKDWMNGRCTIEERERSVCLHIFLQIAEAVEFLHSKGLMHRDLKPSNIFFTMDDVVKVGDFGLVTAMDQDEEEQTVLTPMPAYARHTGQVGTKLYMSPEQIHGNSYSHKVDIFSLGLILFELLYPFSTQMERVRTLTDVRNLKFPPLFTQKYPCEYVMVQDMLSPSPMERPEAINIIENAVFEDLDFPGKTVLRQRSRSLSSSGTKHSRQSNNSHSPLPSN
Protocol: as §1

[4] = molecular target: T4, TESK1 (Homo sapiens, UniProt Q15569)
T4 construct: lines 1-140) and Reaction Biology
Protocol: as §1

T4 sequence (Q15569 whole entry): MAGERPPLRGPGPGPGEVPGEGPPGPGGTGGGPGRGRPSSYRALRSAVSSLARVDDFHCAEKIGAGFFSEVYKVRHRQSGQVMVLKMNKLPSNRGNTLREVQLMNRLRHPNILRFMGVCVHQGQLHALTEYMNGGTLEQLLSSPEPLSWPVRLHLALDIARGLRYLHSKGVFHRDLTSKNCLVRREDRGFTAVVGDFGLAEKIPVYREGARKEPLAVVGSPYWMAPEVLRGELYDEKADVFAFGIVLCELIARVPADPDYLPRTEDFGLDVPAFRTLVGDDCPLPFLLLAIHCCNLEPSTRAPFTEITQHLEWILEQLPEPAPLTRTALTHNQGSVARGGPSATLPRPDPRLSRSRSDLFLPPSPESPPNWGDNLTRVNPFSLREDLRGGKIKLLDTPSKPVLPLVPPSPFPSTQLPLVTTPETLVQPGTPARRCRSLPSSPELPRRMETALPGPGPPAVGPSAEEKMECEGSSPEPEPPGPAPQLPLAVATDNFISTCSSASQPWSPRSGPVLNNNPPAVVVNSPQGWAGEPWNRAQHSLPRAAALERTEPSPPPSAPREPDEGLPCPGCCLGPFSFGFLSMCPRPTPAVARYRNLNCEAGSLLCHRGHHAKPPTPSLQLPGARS

SMILES	remaining activity at 1 µM [1] [%]	remaining activity at 1 µM [2] [%]	remaining activity at 1 µM [3] [%]	remaining activity at 1 µM [4] [%]	residual activity ([1]; 1 μM) [%]	residual activity ([2]; 1 μM) [%]	residual activity ([3]; 1 μM) [%]	residual activity ([4]; 1 μM) [%]
O=C1Nc2ccc(I)cc2/C1=C/c1cc(Br)c(O)c(Br)c1 [GW5074]	98	96	85	32	–	–	–	–
Oc1ncnc2c1c(-c1ccccc1)cn2-c1ccccc1 [F1386-0303, 5,7-diphenyl-7H-pyrrolo[2,3-d]pyrimidin-4-ol]	114	98	99	101	–	–	–	–
O=C1Cc2c([nH]c3ccc(Br)cc23)-c2ccccc2N1 [Kenpaullone]	59	93	94	19	–	–	–	–
COCCOc1ccc(-c2cn(-c3ccccc3)c3nc[nH]c(=O)c23)cc1 [DMX-5804, 5-[4-(2-methoxy-ethoxy)-phenyl]-7-phenyl-3,7-dihydro-pyrrolo[2,3-d]pyrimidin-4-one]	94	120	110	90	–	–	–	–
Nc1ncc(C(=O)NC2CN(C(=O)C3CC3)C2)c2ccc(-c3cccc(F)c3)nc12 [GNE-495]	–	–	–	–	109	75	100	72
